Read-outs that look alike come from different tables or passages of the source.
What was measured:
[1] = target: LIMK1 (Homo sapiens, UniProt P53667); experiment: Differential scanning fluorimetry assay for LIMK1/2; format: binding; details: LIMK1, 10 μM compound
Protocol: The assay was performed according to a previously established protocol. […] The compounds to be tested were added to a final concentration of 10 μM. […] Data were analyzed with MxPro software.

[2] = target: JAK2 (V617F) (Homo sapiens, UniProt O60674, V617F); experiment: cell-based; details: HEK-293T; 1 μM inhibitor, HEK293T cells
[3] = target: LRRK2 (Homo sapiens, UniProt Q5S007); experiment: scanMAX KINOMEscan (Eurofins); format: binding
Sequence of LRRK2 (Q5S007 whole entry): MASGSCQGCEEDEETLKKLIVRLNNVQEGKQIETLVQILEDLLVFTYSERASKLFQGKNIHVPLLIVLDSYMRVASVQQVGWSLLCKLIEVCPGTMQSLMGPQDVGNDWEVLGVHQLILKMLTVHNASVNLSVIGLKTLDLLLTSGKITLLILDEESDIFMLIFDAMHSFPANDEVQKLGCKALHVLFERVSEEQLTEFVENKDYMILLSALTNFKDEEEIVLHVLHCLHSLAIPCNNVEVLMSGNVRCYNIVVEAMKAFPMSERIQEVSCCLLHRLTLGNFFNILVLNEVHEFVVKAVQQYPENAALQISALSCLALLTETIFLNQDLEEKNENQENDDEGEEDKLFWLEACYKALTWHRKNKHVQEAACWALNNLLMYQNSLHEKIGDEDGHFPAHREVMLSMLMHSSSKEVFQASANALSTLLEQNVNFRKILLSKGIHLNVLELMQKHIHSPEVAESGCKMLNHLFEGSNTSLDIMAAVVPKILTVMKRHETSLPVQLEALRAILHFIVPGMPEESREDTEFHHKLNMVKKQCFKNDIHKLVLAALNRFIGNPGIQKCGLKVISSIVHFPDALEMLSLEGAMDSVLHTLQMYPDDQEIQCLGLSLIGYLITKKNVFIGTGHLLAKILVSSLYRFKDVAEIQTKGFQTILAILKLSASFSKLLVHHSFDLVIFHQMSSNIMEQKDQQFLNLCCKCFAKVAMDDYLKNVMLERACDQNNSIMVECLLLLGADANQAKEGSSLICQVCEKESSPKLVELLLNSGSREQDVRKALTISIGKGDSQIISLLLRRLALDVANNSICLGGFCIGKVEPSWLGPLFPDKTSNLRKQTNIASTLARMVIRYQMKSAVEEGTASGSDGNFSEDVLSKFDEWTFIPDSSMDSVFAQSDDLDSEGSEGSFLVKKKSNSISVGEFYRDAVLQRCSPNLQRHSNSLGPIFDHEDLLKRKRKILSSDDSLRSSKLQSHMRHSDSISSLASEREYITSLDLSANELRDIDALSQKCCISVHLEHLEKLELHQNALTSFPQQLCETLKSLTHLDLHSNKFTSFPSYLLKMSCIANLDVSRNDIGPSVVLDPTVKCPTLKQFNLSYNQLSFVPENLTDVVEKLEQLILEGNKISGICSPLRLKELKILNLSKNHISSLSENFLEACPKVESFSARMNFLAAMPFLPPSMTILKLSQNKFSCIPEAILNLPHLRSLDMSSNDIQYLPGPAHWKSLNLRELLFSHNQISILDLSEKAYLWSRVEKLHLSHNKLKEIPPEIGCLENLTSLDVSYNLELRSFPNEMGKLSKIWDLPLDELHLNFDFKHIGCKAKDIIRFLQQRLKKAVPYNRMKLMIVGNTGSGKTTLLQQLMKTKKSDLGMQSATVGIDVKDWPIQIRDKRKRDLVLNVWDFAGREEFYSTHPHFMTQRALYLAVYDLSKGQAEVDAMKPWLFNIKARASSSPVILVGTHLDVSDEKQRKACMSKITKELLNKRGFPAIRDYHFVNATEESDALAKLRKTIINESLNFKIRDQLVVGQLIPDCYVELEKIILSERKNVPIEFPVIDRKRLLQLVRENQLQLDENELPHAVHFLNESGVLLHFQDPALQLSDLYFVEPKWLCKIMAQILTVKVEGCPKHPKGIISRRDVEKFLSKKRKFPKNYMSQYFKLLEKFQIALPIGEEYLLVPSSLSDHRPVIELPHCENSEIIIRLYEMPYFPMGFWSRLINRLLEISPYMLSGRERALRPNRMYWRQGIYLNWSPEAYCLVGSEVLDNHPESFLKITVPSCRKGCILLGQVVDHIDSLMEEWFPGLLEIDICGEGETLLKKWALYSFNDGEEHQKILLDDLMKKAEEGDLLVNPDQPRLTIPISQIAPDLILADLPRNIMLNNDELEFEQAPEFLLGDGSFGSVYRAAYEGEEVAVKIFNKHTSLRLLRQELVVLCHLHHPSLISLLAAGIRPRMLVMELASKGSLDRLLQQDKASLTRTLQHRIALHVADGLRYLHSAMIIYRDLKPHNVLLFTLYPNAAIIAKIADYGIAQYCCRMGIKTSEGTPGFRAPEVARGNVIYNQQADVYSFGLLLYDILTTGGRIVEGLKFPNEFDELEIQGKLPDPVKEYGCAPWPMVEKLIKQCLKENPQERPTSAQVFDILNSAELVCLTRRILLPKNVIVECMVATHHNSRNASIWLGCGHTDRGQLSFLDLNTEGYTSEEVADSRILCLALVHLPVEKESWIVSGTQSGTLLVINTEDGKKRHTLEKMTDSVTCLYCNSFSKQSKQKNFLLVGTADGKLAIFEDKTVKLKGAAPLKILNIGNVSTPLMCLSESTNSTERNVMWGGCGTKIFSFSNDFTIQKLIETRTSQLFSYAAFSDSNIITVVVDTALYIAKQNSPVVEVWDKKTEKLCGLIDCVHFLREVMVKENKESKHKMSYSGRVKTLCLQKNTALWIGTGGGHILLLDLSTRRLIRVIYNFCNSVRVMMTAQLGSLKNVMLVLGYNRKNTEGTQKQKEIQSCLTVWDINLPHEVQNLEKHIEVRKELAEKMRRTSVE

[4] = tested on: 468 kinases including some pathogenic mutants; experiment: biochemical; format: binding
[5] = target: 468 kinases including some pathogenic mutants (Homo sapiens, UniProt O43293); experiment: biochemical; format: binding; details: DAPK3 (Entrez DAPK3), 100 nM; read-out: Percent Control
[6] = target: 468 kinases including some pathogenic mutants (Homo sapiens, UniProt P43405); experiment: biochemical; format: binding; details: SYK (Entrez SYK), 100 nM; read-out: Percent Control
[7] = target: PTK2B (Homo sapiens, UniProt Q14289); format: cell-based; details: HEK-293T; 1 μM inhibitor, HEK293T cells
Protocol: (§1) For plate preparation, a transfection mix was prepared in white 384-well small-volume plates (Greiner, cat. no. 784075) by preplating 3 μL of 20 μL/mL FuGene HD (Promega, cat. no. E2311), diluted in an Opti-MEM medium (Gibco, cat. no. 11058-021). One μL of DNA from both DNA vector source plates of the K192 kit was added using an Echo 550 acoustic dispenser (Beckman Coulter). The mix was incubated for 30 min, and 6 μL of HEK293T cells in an Opti-MEM medium was added. The proteins were allowed to express for 20 h. After expression, Tracer K10 was added using the concentrations recommended in the K192 technical manual and a 1 μM inhibitor was added to every second well. […] Five μL of substrate solution was added to every well, and filtered luminescence was measured on a PHERAstar plate reader (BMG Labtech) equipped with a luminescence filter pair (450 nm BP filter (donor) and a 610 nm LP filter (acceptor)). For every kinase, occupancy was calculated and plotted using GraphPad Prism 10 (Table S5).

[8] = target: RPS6KA4 (Homo sapiens, UniProt O75676); format: cell-based; details: HEK-293T; 1 μM inhibitor, HEK293T cells
Protocol: as §1

[9] = target: STK16 (Homo sapiens, UniProt O75716); format: cell-based; details: HEK-293T; 1 μM inhibitor, HEK293T cells
Sequence of STK16 (O75716 whole entry): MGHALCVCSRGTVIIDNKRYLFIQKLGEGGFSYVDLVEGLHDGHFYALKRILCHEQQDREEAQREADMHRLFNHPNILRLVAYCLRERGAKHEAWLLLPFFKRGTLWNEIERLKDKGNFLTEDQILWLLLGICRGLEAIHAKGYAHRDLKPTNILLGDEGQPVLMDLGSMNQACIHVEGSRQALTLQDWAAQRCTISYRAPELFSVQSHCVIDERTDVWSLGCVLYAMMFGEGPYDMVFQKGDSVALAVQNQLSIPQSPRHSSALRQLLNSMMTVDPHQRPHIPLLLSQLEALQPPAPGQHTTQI
Protocol: as §1

[10] = target: FGFR3 (Homo sapiens, UniProt P22607); format: cell-based; details: HEK-293T; 1 μM inhibitor, HEK293T cells
Protocol: as §1

[11] = target: MAP3K11 (Homo sapiens, UniProt Q16584); format: cell-based; details: HEK-293T; 1 μM inhibitor, HEK293T cells
Protocol: as §1

[12] = target: MYLK3 (Homo sapiens, UniProt Q32MK0); format: cell-based; details: HEK-293T; 1 μM inhibitor, HEK293T cells
Protocol: as §1

[13] = target: FGFR4 (Homo sapiens, UniProt P22455); format: cell-based; details: HEK-293T; 1 μM inhibitor, HEK293T cells
Protocol: as §1

[14] = target: CDKL1 (Homo sapiens, UniProt Q00532); format: cell-based; details: HEK-293T; 1 μM inhibitor, HEK293T cells
Sequence of CDKL1 (Q00532 whole entry): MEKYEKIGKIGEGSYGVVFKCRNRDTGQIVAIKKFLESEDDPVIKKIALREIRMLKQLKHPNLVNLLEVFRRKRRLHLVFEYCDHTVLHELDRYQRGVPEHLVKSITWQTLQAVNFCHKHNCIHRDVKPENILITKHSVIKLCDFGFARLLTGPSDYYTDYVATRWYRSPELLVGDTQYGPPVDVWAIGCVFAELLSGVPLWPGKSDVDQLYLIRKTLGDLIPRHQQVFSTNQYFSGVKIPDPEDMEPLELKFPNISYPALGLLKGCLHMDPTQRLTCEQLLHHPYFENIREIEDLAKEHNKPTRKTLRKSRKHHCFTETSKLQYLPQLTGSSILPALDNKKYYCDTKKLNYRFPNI
Protocol: as §1

[15] = target: NEK3 (Homo sapiens, UniProt P51956); format: cell-based; details: HEK-293T; 1 μM inhibitor, HEK293T cells
Protocol: as §1

[16] = target: TBK1 (Homo sapiens, UniProt Q9UHD2); format: cell-based; details: HEK-293T; 1 μM inhibitor, HEK293T cells
Protocol: as §1

[17] = target: TNK1 (Homo sapiens, UniProt Q13470); format: cell-based; details: HEK-293T; 1 μM inhibitor, HEK293T cells
Protocol: as §1

[18] = target: ERN1 (Homo sapiens, UniProt O75460); format: cell-based; details: HEK-293T; 1 μM inhibitor, HEK293T cells
Protocol: as §1

[19] = target: STK38L (Homo sapiens, UniProt Q9Y2H1); format: cell-based; details: HEK-293T; 1 μM inhibitor, HEK293T cells
Protocol: as §1

[20] = target: MAP3K4 (Homo sapiens, UniProt Q9Y6R4); format: cell-based; details: HEK-293T; 1 μM inhibitor, HEK293T cells
Protocol: as §1

[21] = target: ABL2 (Homo sapiens, UniProt P42684); format: cell-based; details: HEK-293T; 1 μM inhibitor, HEK293T cells
Protocol: as §1

[22] = target: PKMYT1 (Homo sapiens, UniProt Q99640); format: cell-based; details: HEK-293T; 1 μM inhibitor, HEK293T cells
Protocol: as §1

[23] = target: CDK9 (Homo sapiens, UniProt P50750); format: cell-based; details: HEK-293T; 1 μM inhibitor, HEK293T cells
Sequence of CDK9 (P50750 whole entry): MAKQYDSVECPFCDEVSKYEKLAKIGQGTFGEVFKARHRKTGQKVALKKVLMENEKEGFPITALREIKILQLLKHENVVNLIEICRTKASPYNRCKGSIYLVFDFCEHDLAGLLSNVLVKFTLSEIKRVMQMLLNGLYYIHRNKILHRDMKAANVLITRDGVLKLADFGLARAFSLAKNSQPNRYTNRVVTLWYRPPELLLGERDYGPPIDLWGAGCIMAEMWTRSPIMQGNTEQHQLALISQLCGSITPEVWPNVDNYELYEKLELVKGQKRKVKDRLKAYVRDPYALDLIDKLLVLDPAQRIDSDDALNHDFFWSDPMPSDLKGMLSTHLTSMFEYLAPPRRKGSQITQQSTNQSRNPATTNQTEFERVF
Protocol: as §1

[24] = target: GAK (Homo sapiens, UniProt O14976); format: cell-based; details: HEK-293T; 1 μM inhibitor, HEK293T cells
Protocol: as §1

[25] = target: MAST4 (Homo sapiens, UniProt O15021); format: cell-based; details: HEK-293T; 1 μM inhibitor, HEK293T cells
Protocol: as §1

[26] = target: NEK1 (Homo sapiens, UniProt Q96PY6); format: cell-based; details: HEK-293T; 1 μM inhibitor, HEK293T cells
Protocol: as §1

[27] = target: TEC (Homo sapiens, UniProt P42680); format: cell-based; details: HEK-293T; 1 μM inhibitor, HEK293T cells
Sequence of TEC (P42680 whole entry): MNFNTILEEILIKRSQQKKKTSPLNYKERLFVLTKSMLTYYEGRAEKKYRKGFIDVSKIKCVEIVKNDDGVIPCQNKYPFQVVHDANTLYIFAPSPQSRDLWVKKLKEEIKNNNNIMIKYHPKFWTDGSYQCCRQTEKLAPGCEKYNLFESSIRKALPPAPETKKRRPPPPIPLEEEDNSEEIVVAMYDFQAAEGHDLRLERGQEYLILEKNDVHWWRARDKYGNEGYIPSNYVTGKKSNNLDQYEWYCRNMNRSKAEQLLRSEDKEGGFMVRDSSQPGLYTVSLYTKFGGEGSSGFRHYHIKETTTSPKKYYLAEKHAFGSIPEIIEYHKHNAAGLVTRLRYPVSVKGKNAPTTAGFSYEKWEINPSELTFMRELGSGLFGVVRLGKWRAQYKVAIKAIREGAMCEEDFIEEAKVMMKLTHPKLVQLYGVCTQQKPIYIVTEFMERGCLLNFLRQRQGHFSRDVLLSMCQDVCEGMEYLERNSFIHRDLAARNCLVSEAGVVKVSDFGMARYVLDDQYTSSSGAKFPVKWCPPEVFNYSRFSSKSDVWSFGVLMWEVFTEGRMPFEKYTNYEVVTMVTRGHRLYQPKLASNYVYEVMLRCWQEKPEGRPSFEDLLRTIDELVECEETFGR
Protocol: as §1

[28] = target: MAP4K3 (Homo sapiens, UniProt Q8IVH8); format: cell-based; details: HEK-293T; 1 μM inhibitor, HEK293T cells
Sequence of MAP4K3 (Q8IVH8 whole entry): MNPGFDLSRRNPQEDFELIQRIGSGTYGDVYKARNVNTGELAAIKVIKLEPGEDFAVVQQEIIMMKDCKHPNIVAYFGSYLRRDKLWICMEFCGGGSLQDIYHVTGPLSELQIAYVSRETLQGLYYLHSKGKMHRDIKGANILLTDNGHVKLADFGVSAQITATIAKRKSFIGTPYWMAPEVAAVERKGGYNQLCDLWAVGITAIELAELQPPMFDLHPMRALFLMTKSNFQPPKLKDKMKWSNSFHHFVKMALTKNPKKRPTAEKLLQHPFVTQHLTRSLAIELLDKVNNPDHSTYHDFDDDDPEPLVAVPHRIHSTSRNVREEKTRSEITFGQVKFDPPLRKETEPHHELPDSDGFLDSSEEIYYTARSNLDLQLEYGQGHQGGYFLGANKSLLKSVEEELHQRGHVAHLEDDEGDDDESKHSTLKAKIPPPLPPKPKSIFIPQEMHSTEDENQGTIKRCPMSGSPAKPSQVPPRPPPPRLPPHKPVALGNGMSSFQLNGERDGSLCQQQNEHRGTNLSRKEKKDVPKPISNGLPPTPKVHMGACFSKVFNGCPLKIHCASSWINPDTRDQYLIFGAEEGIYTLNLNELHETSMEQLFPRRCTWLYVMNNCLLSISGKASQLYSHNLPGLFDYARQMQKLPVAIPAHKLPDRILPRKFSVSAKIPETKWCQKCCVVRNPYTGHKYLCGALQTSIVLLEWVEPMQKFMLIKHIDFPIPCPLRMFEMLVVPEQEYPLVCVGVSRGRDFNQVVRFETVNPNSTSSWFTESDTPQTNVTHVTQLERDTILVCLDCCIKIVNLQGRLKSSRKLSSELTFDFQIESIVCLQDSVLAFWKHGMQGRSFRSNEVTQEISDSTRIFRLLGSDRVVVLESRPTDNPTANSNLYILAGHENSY
Protocol: as §1

[29] = target: RIPK2 (Homo sapiens, UniProt O43353); format: cell-based; details: HEK-293T; 1 μM inhibitor, HEK293T cells
Protocol: as §1

[30] = target: RPS6KA6 (Homo sapiens, UniProt Q9UK32); format: cell-based; details: HEK-293T; 1 μM inhibitor, HEK293T cells
Protocol: as §1

[31] = target: PLK4 (Homo sapiens, UniProt O00444); format: cell-based; details: HEK-293T; 1 μM inhibitor, HEK293T cells
Protocol: as §1

[32] = target: CDK3 (Homo sapiens, UniProt Q00526); format: cell-based; details: HEK-293T; 1 μM inhibitor, HEK293T cells
Protocol: as §1

[33] = target: FLT3(D835V) (Homo sapiens, UniProt P36888, D835V); experiment: biochemical; format: binding; details: 1000 nM, read-out: Percent Control
[34] = target: PIK3CA(I800L) (Homo sapiens, UniProt P42336, I800L); experiment: biochemical; format: binding; details: read-out: Percent Control

CN1C(=O)[C@@H](N2CCc3c(C(N)=O)nn(Cc4ccccc4)c3C2=O)COc2ccccc21 [Compound 11]
ΔTM (stabilization in the DSF assay) [1]: inactive

CN1C(=O)[C@@H](N2CCc3c(nn(Cc4ccccc4)c3C(N)=O)C2=O)COc2cc(Cl)ccc21 [Compound 10, (S)-2-benzyl-6-(8-chloro-5-methyl-4-oxo-2,3,4,5-tetrahydrobenzo[b][1,4]oxazepin-3-yl)-7-oxo-4,5,6,7-tetrahydro-2H-pyrazolo[3,4-c]pyridine-3-carboxamide]
receptor occupancy at 1 µM [2]: 2.27% | remaining binding at 0.1 µM ([3]; LRRK2 (Entrez LRRK2), 100 nM, read-out: Percent Control): 84% | remaining binding at 1 µM ([3]; LRRK2, 1 μM, read-out: POC (Top Hits @ 1 μM)): 62% | remaining binding at 1 µM ([3]; LRRK2, 1000 nM, read-out: Percent Control): 62% | Percent Control [4]: 100% | Percent Control ([4]; FLT3(ITD) (Entrez FLT3), 100 nM): 54% | remaining activity at 0.1 µM [5]: 79% | remaining activity at 0.1 µM [6]: 100% | receptor occupancy at 1 µM [7]: -1.12% | receptor occupancy at 1 µM [8]: 7.5% | receptor occupancy at 1 µM [9]: -1.63% | receptor occupancy at 1 µM [10]: 22.5% | receptor occupancy at 1 µM [11]: -27.3% | receptor occupancy at 1 µM [12]: 3.25% | receptor occupancy at 1 µM [13]: 5% | receptor occupancy at 1 µM [14]: 12.6% | receptor occupancy at 1 µM [15]: -12% | receptor occupancy at 1 µM [16]: 2.77% | receptor occupancy at 1 µM [17]: -2.13% | receptor occupancy at 1 µM [18]: -1.52% | receptor occupancy at 1 µM [19]: 7.45% | receptor occupancy at 1 µM [20]: 5.69% | receptor occupancy at 1 µM [21]: 6.33% | receptor occupancy at 1 µM [22]: -7.45% | receptor occupancy at 1 µM [23]: -4.57% | receptor occupancy at 1 µM [24]: 0.954% | receptor occupancy at 1 µM [25]: -4.29% | receptor occupancy at 1 µM [26]: 8.46% | receptor occupancy at 1 µM [27]: -0.614% | receptor occupancy at 1 µM [28]: -3.75% | receptor occupancy at 1 µM [29]: -1.2% | receptor occupancy at 1 µM [30]: 7.04% | receptor occupancy at 1 µM [31]: 10.7% | receptor occupancy at 1 µM [32]: -5.32% | remaining activity at 1 µM [33]: 56% | remaining activity at 1 µM [34]: 89%

Source: publication PMC12090182, “Repurposing of the RIPK1-Selective Benzo[1,4]oxazepin-4-one Scaffold for the Development of a Type III LIMK1/2 Inhibitor” (ACS Chemical Biology, 2025)
